The assay relates to PCA responses. Briefly: Rat Passive Cutaneous Anaphylaxis (PCA) test. The assay is classed as in vivo, Wistar rats. On the procedure:
All of the compounds prepared in the preceding Examples were submitted for biological testing. The test system was the Rat Passive Cutaneous Anaphylaxis (PCA) test described below in (ii).
i. Serum containing heat labile homocytotropic antibody was raised in rats by a method similar to that used by Mota. (I. Mota Immunology 1964, 7, 681).
Male Wistar rats of 250-300g. were injected intraperitoneally with 0.5 of Bordatella pertussis vaccine (containing 4 × 10^10 dead organism per ml) and subcutaneously with 0.5ml of an emulsion of 100mg. of ovalbumin in 2ml of saline and 3ml of incomplete Freunds' adjuvant. Rats were bled by cardiac puncture on day 18, the blood was pooled and separated and serum stored at -20° and thawed only once before use.
ii. The P.C.A. test was similar to that described by Ovary and Bier (A. Ovary and O. E. Bier, Proc. Soc. Exp. Biol. Med. 1952, 81, 584) and Goose and Blair (J. Goose and AMJ. N. Blair, Immunology 1969, 16, 769).
0.1ml of each of six twofold serial dilutions of the serum in 0.9% saline were injected intradermally into separate sites on the shaved dorsal surface of 250-350g. Wistar rats. 72 hours later the animals were challenged by i.v. injection of 0.3ml of 1% ovalbumin mixed with 0.1ml of a 5% solution of pontamine sky blue dye both in isotonic saline buffered with pH. 7.2 Sorenson buffer (P.B.S.). The rats were killed after 20 minutes and the diameter of the blue wheals at the antibody injection sites were measured. The starting dilution of the serum was adjusted so that there was no response, after challenge, at the site of injection of the highest dilution and a maximum response at the lowest dilution. Typically, six twofold serial dilutions of the serum from 1/4 to 1/128 were used.
Compounds were tested for their ability to reduce the diameter of the wheals at the injection sites of dilutions of antibody which on all the controls have less than maximum response. Amounts of the compounds were administered to rats each amount to a test group of six animals at a specified time prior to intravenous challenge with ovalbumin. The diameters of the blue wheals which developed on the tests group of animals were compared with those on a control group of six animals treated in the same way as the test group, but which had not received the compound under test.
% Inhibition of P.C.A. = 100 (1 - a/b)
a = The mean of the sum of the diameters of the wheals produced in the test group of animals at those antibody sites where all the control group of animals gave less than maximum response.
b = The mean of the sum of diameters of the wheals produced in the control group of animals at those antibody sites where all the animals in the group gave less than maximum response.
The preferred method of administration was a solution of the test compound dissolved in pH 7.2 buffer and neutralised with sodium bicarbonate.

Where [1] appears, read: iv, time 0 mins prior to i.v. ovalbumin challenge.
Setting [2] is: iv, time 30 mins prior to i.v. ovalbumin challenge.
Where [3] appears, read: first dose pair, only one time (0) printed for the whole line.
[4] abbreviates: second dose pair, time not printed separately.
[5] abbreviates: iv, time 60 mins prior to i.v. ovalbumin challenge.
The mark [6] stands for this setting: iv, time 10 mins prior to i.v. ovalbumin challenge.

Each structure is given as a SMILES string.

Turning to `COc1cc2cc(C(=O)O)[nH]c(=O)c2cc1OC` [Example 11, 6,7-Dimethoxyisocarbostyril-3-carboxylic acid], under setting [1], the inhibition at 25 mg/kg came to 11% and the inhibition at 100 mg/kg came out at 38%. Besides, under setting [2], the inhibition at 25 mg/kg worked out at 2% and the inhibition at 100 mg/kg was 17%.
In the case of `Cc1cccc2cc(C(=O)O)oc(=O)c12` [Example 3, 8-Methylisocoumarin-3-carboxylic acid], under setting [3], the inhibition at 25 mg/kg was found to be 44% and the inhibition at 100 mg/kg was 66%. Further, under setting [4], the inhibition at 25 mg/kg is 15% and the inhibition at 100 mg/kg came out at 28%.
Consider `COc1cc2cc(C(=O)O)oc(=O)c2cc1OC` [Example 8, 6,7-Dimethoxyisocoumarin-3-carboxylic acid], for which, under setting [1], the inhibition at 25 mg/kg came out at 64% and the inhibition at 100 mg/kg is 84%. Further, under setting [2], the inhibition at 25 mg/kg is 24% and the inhibition at 100 mg/kg came to 24%.
Turning to `Cc1cc2c(C)c(C(=O)O)oc(=O)c2cc1C` [Example 7, 4,6,7-Trimethylisocoumarin-3-carboxylic acid monohydrate], under setting [1], the inhibition at 25 mg/kg was determined as 10% and the inhibition at 100 mg/kg came to 15%. Under setting [2], the inhibition at 25 mg/kg worked out at 39% and the inhibition at 100 mg/kg is 49%.
As for `COc1ccc2cc(C(=O)O)oc(=O)c2c1` [Example 5, 7-Methoxyisocoumarin-3-carboxylic acid], the inhibition at 25 mg/kg runs as follows: under setting [1], 9%; under setting [5], 4%. For the same compound, the inhibition at 100 mg/kg amounted to 9% under setting [1] and 55% under setting [5].
In the case of `Cc1c(C(=O)O)oc(=O)c2ccccc12` [Example 2, 4-Methylisocoumarin-3-carboxylic acid], under setting [1], the inhibition at 25 mg/kg was -3% and the inhibition at 100 mg/kg turned out to be 41%. Moreover, under setting [2], the inhibition at 25 mg/kg was determined as 0% and the inhibition at 100 mg/kg stood at 10%.
The like results for `Cc1c(C(=O)O)oc(=O)c2c(C)cccc12` [Example 4, 4,8-Dimethylisocoumarin-3-carboxylic acid] were, in that order, 10%, 12%, 8% and 48%.
Take `O=C(O)c1cc2ccccc2c(=O)s1` [Example 12, 2-Thiaisocoumarin-3-carboxylic acid]: under setting [1], the inhibition at 25 mg/kg is 0% and the inhibition at 100 mg/kg was determined as 22%. Further, under setting [5], the inhibition at 25 mg/kg is 4% and the inhibition at 100 mg/kg stood at 14%.
The matching figures for `O=C(O)c1cc2ccc(Br)cc2c(=O)o1` [Example 6, 7-Bromoisocoumarin-3-carboxylic acid]: 26%, 39%, 39% and 0%.
Turning to `O=C(O)c1cc2ccccc2c(=O)o1` [Example 1, Isocoumarin-3-carboxylic acid], the inhibition at 25 mg/kg was 29% under setting [1] and -13% under setting [2]. Also, the inhibition at 100 mg/kg reads like this: under setting [1], 62%; under setting [2], 16%.
Take `COc1cc2cc(C(=O)O)sc(=O)c2cc1OC` [Example 14, 6,7-Dimethoxy-2-thiaisocoumarin-3-carboxylic acid]: the inhibition at 12.5 mg/kg (iv, Dose 12.5 mg/Kg, time 10 mins prior to i.v. ovalbumin challenge) amounted to 28%. Under setting [6], the inhibition at 25 mg/kg is 47% and the inhibition at 100 mg/kg came to 87%. Further, the inhibition at 50 mg/kg (iv, Dose 50 mg/Kg, time 10 mins prior to i.v. ovalbumin challenge) came out at 79%.
`Cc1c(C(=O)O)[nH]c(=O)c2ccccc12` [Example 10, 4-Methylisocarbostyril-3-carboxylic acid]: the inhibition at 25 mg/kg is 12% under setting [1] and -13% under setting [2]. Further, the inhibition at 100 mg/kg amounted to 26% under setting [1] and 21% under setting [2].
In the case of `COc1ccc2cc(C(=O)O)oc(=O)c2c1OC` [Example 15, 7,8-Dimethoxyisocoumarin-3-carboxylic acid], under setting [6], the inhibition at 25 mg/kg was 64% and the inhibition at 100 mg/kg is 63%. Moreover, under setting [2], the inhibition at 25 mg/kg is 12% and the inhibition at 100 mg/kg worked out at 29%.
`Cc1c(C(=O)O)sc(=O)c2ccccc12` [Example 13, 4-Methyl-2-thiaisocoumarin-3-carboxylic acid]: under setting [1], the inhibition at 25 mg/kg is -6% and the inhibition at 100 mg/kg came to 6%. Moreover, under setting [5], the inhibition at 25 mg/kg was 6% and the inhibition at 100 mg/kg amounted to 19%.
As to `O=C(O)c1cc2ccccc2c(=O)[nH]1` [Example 9, Isocarbostyril-3-carboxylic acid], under setting [1], the inhibition at 25 mg/kg came out at 21% and the inhibition at 100 mg/kg was 36%. Besides, under setting [2], the inhibition at 25 mg/kg was found to be 15% and the inhibition at 100 mg/kg was 25%.

For orientation: inhibition means the change of the read-out against control, counted positive when it falls.

The values are drawn from patent US3975535A, “Anti-allergic-3-carboxy-isocoumarin compositions and methods of use” (Beecham Group Limited, priority 1973, dated 1976).
